Values after ≈ are worked out from the molar mass of the structure shown.
Legend:
Format in all cases: cell-based
[1] = LDH cytotoxic activity assay, C6; conditions: rat, C6 glioma cells
Description: (§1) The cell lines were cultured in a cell medium (Dulbecco’s modified eagle’s or RPMI 1640) enriched with 10% (v/v) fetal bovine serum and 2% (v/v) Penicillin-Streptomycin (10,000 U/mL). First, old medium was removed out of the flask when the cells reached approximately 80% confluence. Next, cells were taken from the flasks surface using trypsin-EDTA solution and then subjected to centrifugation. Following, the cell pellet was suspended with fresh media and was inoculated into wells.
(§2) Approximately 5 × 10^3 cells in 100 μL were placed into 96-well plates as triplicates and treated with 25, 50, 75, and 100 μg/mL concentrations of test compounds at 37 °C with 5% CO2 for 24 h. LDH activity was obtained by determining absorbance at 492–630 nm using a microplate reader.

[2] = LDH cytotoxic activity assay, HT29; conditions: human, HT29 cells
Description: as §1, §2

[3] = test system: E. coli ATCC 25922; assay: Microdilution MIC assay; conditions: Escherichia coli, ATCC25922; E. coli ATCC 25922, 24 h at 35 °C
Description: (§3) MIC values of the compounds against bacterial strains were determined on the basis of a microwell dilution method. […] […]. Growth of microorganisms was determined visually after incubation for 24 h at 35 °C. The lowest concentration at which there was no visible growth (turbidity) was taken as the MIC.

[4] = test system: E. coli ESBL ATCC 35218; assay: Microdilution MIC assay; conditions: Escherichia coli, ATCC35218; E. coli ESBL ATCC 35218, 24 h at 35 °C
Description: as §3

[5] = test system: P. aeruginosa AGME ATCC 27853; assay: Microdilution MIC assay; conditions: Pseudomonas aeruginosa, ATCC27853; P. aeruginosa AGME ATCC 27853, 24 h at 35 °C
Description: as §3

[6] = test system: S. aureus MSSA ATCC 29213; assay: Microdilution MIC assay; conditions: Staphylococcus aureus, 24 h, S. aureus MSSA ATCC 29213, 24 h at 35 °C; read-out: MIC
Description: as §3

[7] = test system: S. aureus MRSA ATCC 46300; assay: Microdilution MIC assay; conditions: Staphylococcus aureus; S. aureus MRSA ATCC 46300, 24 h at 35 °C; read-out: MIC
Description: as §3

[8] = test system: S. mutans ATCC 35668; assay: Microdilution MIC assay; conditions: Streptococcus mutans, ATCC35668, 24 h, S. mutans ATCC 35668, 24 h at 35 °C; read-out: MIC
Description: as §3

[9] = test system: HT29; assay: cells; conditions: Homo sapiens
Description: as §1
(§4) A cell suspension containing approximately 1 × 10^4 cells in 100 μL was seeded into the wells of 96-well culture plates. […]. The final volume of the wells was set to 200 μL by medium. Cell proliferation assay was evaluated by MTT (yellow tetrazolium MTT (3-(4,5-dimethylthiazolyl-2)-2,5-diphenyltetrazolium bromide) methods. Briefly, an MTT stock solution (5 mg of MTT/mL of distilled water) was filtered and kept at −20 °C until use. The cells were exposed to an MTT reagent (consisting of one parts of MTT stock solutions and nine parts of fresh RPMI 1640 without phenol red) for 4 h to form MTT formazan dye followed by the dye dissolved in DMSO with Sorenson’s buffer for 30 min at room temperature and then the plate was measured at 560 nm, with 690 nm as a reference interval, using a microplate reader. Each experiment was repeated at least three times for each cell line.
(§5) IC50 value is a concentration that inhibits half of the cells in vitro. The half maximal inhibitory concentration (IC50) of the test and control compounds was calculated using XLfit5 or excel spreadsheet and represent in μM at 95% confidence intervals. The proliferation assay results were expressed as the percent inhibition according to the following formula: % Inhibition = [1 - (Absorbance of Treatments /Absorbance of DMSO) × 100]. Three dose response parameters (GI50, TGI, LC50) were calculated according to the following formulas using the absorbance measurements of time zero (Tz), control growth (C), and test growth in the presence of drug (Ti). Growth inhibition of 50% (GI50) was calculated from [(Ti-Tz)/(C-Tz)] × 100 = 50, which is the drug concentration resulting in a 50% reduction in the net growth increase in control cells during the drug incubation. The drug concentration resulting in total growth inhibition (TGI) was calculated from Ti = Tz. The LC50 indicating a net loss of cells following treatment was calculated from [(Ti-Tz)/Tz] × 100 = −50.

[10] = test system: Hep3B; assay: cells; conditions: Homo sapiens
Description: as §1, §4, §5

[11] = test system: C6 (Rat brain glioma); assay: cells; conditions: Rattus norvegicus
Description: as §1, §4, §5

[12] = test system: MCF7; assay: cells; conditions: Homo sapiens
Description: as §1, §4, §5

[13] = test system: A549; assay: cells; conditions: Homo sapiens
Description: as §1, §4, §5

[14] = test system: HeLa; assay: cells; conditions: Homo sapiens
Description: as §1, §4, §5

[15] = LDH cytotoxic activity assay, HeLa; conditions: human, HeLa cells
Description: as §1, §2

[16] = test system: normal FL cells; assay: cells; conditions: FL normal cells, MTT
Description: as §1, §4, §5

[17] = in vitro; conditions: human, LC50
Description: as §1, §4, §5

MIC [3]: > 1000 µg/mL | MIC [4]: > 1000 µg/mL | MIC [5]: > 1000 µg/mL | MIC [6]: 1000 µg/mL (≈ 2360 µM) | MIC [7]: 1000 µg/mL (≈ 2360 µM) | MIC [8]: 500 µg/mL (≈ 1180 µM) | GI50 ([9]; HT-29, HT29, MTT): 2.22 µg/mL (≈ 5.23 µM) | IC50 ([9]; HT-29, HT29, MTT, read-out: IC50): 78.4 µg/mL (≈ 185 µM) | GI50 ([10]; MTT): 3.83 µg/mL (≈ 9.02 µM) | IC50 ([10]; MTT, read-out: IC50): > 500 µg/mL | GI50 ([11]; C6, MTT): 4.37 µg/mL (≈ 10.3 µM) | IC50 ([11]; C6, MTT, read-out: IC50): 33.5 µg/mL (≈ 78.9 µM) | GI50 ([12]; MCF7, MTT): 2.23 µg/mL (≈ 5.25 µM) | IC50 ([12]; MCF7, MTT, read-out: IC50): > 500 µg/mL | GI50 ([13]; A549, MTT): 6.49 µg/mL (≈ 15.3 µM) | IC50 ([13]; A549, MTT, read-out: IC50): > 500 µg/mL | GI50 ([14]; MTT): > 500 µg/mL | IC50 ([14]; MTT, read-out: IC50): > 500 µg/mL
SMILES: Cc1ccccc1-c1cc(-c2ccncc2)nc(N[C@@H]2O[C@H](CO)[C@@H](O)[C@H](O)[C@H]2O)n1 [Compound 3, N-[4-(2-methylphenyl)-6-pyridin-4-ylpyrimidin-2-yl]-β-D-glucopyranosylamine]
cytotoxicity at 24 h, 25 μg/mL ([1]; C6, 25 μg/mL): 25.3% | cytotoxicity at 24 h, 50 μg/mL ([1]; C6, 50 μg/mL): 32.1% | cytotoxicity at 24 h, 75 μg/mL ([1]; C6, 75 μg/mL): 74% | cytotoxicity at 24 h, 100 μg/mL ([1]; C6, 100 μg/mL): 99.7% | cytotoxicity at 24 h, 25 μg/mL ([2]; HT29, 25 μg/mL): 33.1% | cytotoxicity at 24 h, 50 μg/mL ([2]; HT29, 50 μg/mL): 49.9% | cytotoxicity at 24 h, 75 μg/mL ([2]; HT29, 75 μg/mL): 71.1% | cytotoxicity at 24 h, 100 μg/mL ([2]; HT29, 100 μg/mL): 98.7% | LC50 (concentration giving 50% net cell loss relative to time zero) ([9]; HT-29, read-out: LC50): > 500 µg/mL | IC (total growth inhibition) ([9]; HT-29, HT29, MTT, read-out: TGI): 230 µg/mL | IC (total growth inhibition) ([10]; MTT, read-out: TGI): > 500 µg/mL | LC50 (concentration causing 50% net cell loss relative to time zero) ([10]; read-out: LC50): > 500 µg/mL | LC50 (concentration giving 50% net cell loss relative to time zero) ([11]; read-out: LC50): 252 µg/mL (≈ 594 µM) | IC (total growth inhibition) ([11]; C6, MTT, read-out: TGI): 17.4 µg/mL | LC50 (concentration causing 50% net cell loss relative to time zero) ([12]; MCF7, read-out: LC50): > 500 µg/mL | IC (total growth inhibition) ([12]; MCF7, MTT, read-out: TGI): > 500 µg/mL | LC50 (concentration causing 50% net cell loss) ([13]; A549, read-out: LC50): > 500 µg/mL | IC (total growth inhibition) ([13]; A549, MTT, read-out: TGI): > 500 µg/mL | IC (total growth inhibition) ([14]; MTT, read-out: TGI): > 500 µg/mL | LC50 (concentration causing 50% net cell loss) ([14]; read-out: LC50): > 500 µg/mL | cytotoxicity at 24 h, 25 μg/mL ([15]; 25 μg/mL): 16.3% | cytotoxicity at 24 h, 50 μg/mL ([15]; 50 μg/mL): 33.4% | cytotoxicity at 24 h, 75 μg/mL ([15]; 75 μg/mL): 40.6% | cytotoxicity at 24 h, 100 μg/mL ([15]; 100 μg/mL): 56.9% | GI50 [16]: 6.56 µg/mL (≈ 15.5 µM) | IC50 ([16]; read-out: IC50): > 500 µg/mL | IC (total growth inhibition) ([16]; read-out: TGI): > 500 µg/mL | LC50 (concentration causing 50% net cell loss) [17]: > 500 µg/mL

From publication PMC10387993, “New pyrimidine-N-β-D-glucosides: synthesis, biological evaluation, and molecular docking investigations” (Turkish Journal of Chemistry, 2023)
